The values below come from US20250236627A1, “CERTAIN OCTAHYDROFURO[3,4- B]PYRAZINES AS GLP-1 RECEPTOR MODULATORS” (ASTRAZENECA AB, priority 2021, published 2025).

For one experiment, the target named is T1, human GLP-1R receptor (Homo sapiens, UniProt P43220, L260F).
T1 construct: expressed in transfected cells; host or cells: CHO-K1 (ATCC CCL-61)
The experiment in a line: CHOK1 GLP-1R cAMP Assay. Conditions: CHO-K1 cell line stably expressing human GLP-1R; HTRF cAMP detection. Format: cell-based. How it is done:
A cell line stably expressing the human GLP-1R receptor (NM_002062.5, including the naturally-occurring variant Leu260Phe) in a CHO-K1 (ATCC® CCL-61™) was used for assay.
GLP-1 Receptor mediated agonist activity was determined in a cell based assay measuring cAMP levels in cells using Homogeneous Time-Resolved Fluorescence (HTRF) cAMP detection kit (CisBio catalog #62AM4PEC, cAMP Gs Dynamic range kit). The cAMP detection method is based on a competitive immunoassay, in which cAMP produced by the cells and cAMP labeled with the dye d2 compete for binding to a Europium-Cryptate-labeled anti-cAMP antibody. The specific HTRF signal is inversely proportional to the concentration of cAMP.
Compounds were added to individual well in 384 well-assay plates (Greiner #784076) using an Echo (LabCyte) dispenser from 10 mM stocks. Varying concentration of compounds were added to wells, and dimethyl sulfoxide was used to normalize each well to a volume of 100 nanoliter. A dose response curve of GLP1(7-36)NH2 (Bachem H-6795) was included in each run. 5 μL of cAMP concentration response standards are applied in specified wells in the assay plates.
Cryo-preserved cells are thawed and resuspended in assay buffer pre-heated to 37° C. (20 mM 2-[4-(2-hydroxyethyl)piperazin-1-yl]ethanesulfonic acid (HEPES) pH 7.4, lx Hank's Balanced Salt Solution (HBSS, Life Technologies #14065) supplemented with 0.1% (w/v) bovine serum albumin (Sigma, A-7030)). Cells were centrifuged at 250*g for 5 min at room temperature, and resuspend in room tempered assay buffer to a final density of 0.16*10^6 cell/mL, to deliver 800 cells/well. 5 μL of assay buffer with 1 mM 3-isobutyl-1-methylxanthin (IBMX; Sigma cat I-7018) was dispensed per well in assay plates using a multidrop combi (Thermo Scientific) subsequently 5 μL of cell suspension was distributed to relevant wells in the assay using a multidrop dispenser. Assay plates were incubated 20 min at room temperature.
Detection reagents, Europium-Cryptate-labeled anti-cAMP antibody and cAMP labeled with the dye d2, are diluted in lysis buffer, provided by the manufacturer. 5 μL of each detection reagent is supplemented to each assay well using a multidrop dispenser. Assay plates are incubated in the dark for at least one hour. The HTRF signal is measured using the HTRF module (excitation: 337 nm, emission A: 665 nm and emission B: 620 nm) in Pherastar FSX (BMG Labtech).
Raw data were converted to pM cAMP using the cAMP standard curve included in each run. Converted data were further analyzed in Genedata Screener (Genedata) and EC50 determinations were made from agonist dose-response curves analyzed with a curve fitting program using a 4-parameter logistic dose response equation (Equation y=A+((B−A)/1+((C/x)^D))) where A is no stimulation, B is full stimulation, C is the EC50 and D is the Hill slope). The percent effect was determined relative to a saturating concentration of a full GLP-1R agonist (GLP1(7-36)NH2 has 100% effect in this assay setup).

The target in experiment [1] is T2, endogenous human glucagon-like peptide 1 receptor (GLP-1R) (Homo sapiens, UniProt P43220).
T2 construct: endogenous human glucagon-like peptide 1 receptor (GLP-1R) in a pancreatic insulinoma cell line; host or cells: EndoC-βH1 human pancreatic β cell line
The experiment in a line: EndoC cAMP Accumulation Assay. Format: cell-based. The settings on record: EndoC-βH1 human pancreatic β cell line; HTRF cAMP assay. From the text: EndoC cAMP Accumulation Assay
A HTRF (Homogeneous Time-Resolved Fluorescence) cAMP assay (cAMP Gs dynamic kit; CisoBio Cat #62AM4PEJ) was used to identify agonists of the endogenous human glucagon-like peptide 1 receptor (GLP-1R) in a pancreatic insulinoma cell line (EndoC-βH1). […] EndoC-βH1 cells have detectable GLP-1R mRNA as detected by qPCR^1. […] The EndoC-βH1 cell line is a valid model of human beta cells and applicable for screenings to identify novel drug target candidates (Mol. Metab., 2018, 8, 144-157). CisBio HTRF cAMP kits are based on a competitive immunoassay using cryptate-labelled anti-cAMP antibody and d2-labeled cAMP. The detection kit is intended for the direct quantitative determination of cAMP. The specific signal (i.e. energy transfer) is inversely proportional to the concentration of cAMP in the standard or sample. Test compounds (10 mM in DMSO) were diluted into assay buffer (HBSS (Sigma #H8264) supplemented with 25 mM HEPES (Gibco #15630, pH 7.4), 0.1% BSA (Sigma #A3059) and 0.5 mM IBMX (Sigma #I7018) included fresh on the day of the assay) into 96 well U-bottom plates (Greiner #650201). Diluted compounds were transferred to ECHO source PP plates (Labcyte #P-05525) and dose response curves were dispensed acoustically using ECHO 550 into black shallow-well u-bottom 384-well HTRF Assay Plates (Corning 4514).
Cryovials of EndoC-H1 (supplied at 1×10e^7 cells/vial) were used directly for screening. The cryovials and were removed from LN2 and thawed rapidly in a 37° C. water bath. The cells were resuspended in assay buffer and centrifuged at 300 g for 5 min. Cells were resuspended in assay buffer at the appropriate concentration, typically at 12e5 cells per mL (3000 cells per well, dependent on cell batch) and 2.5 μL diluted cells were added to all wells of destination plate by Multidrop combi reagent dispenser (Thermofisher). The plates were incubated at room temperature for 30 min. The assay was stopped by adding 2.5 μL anti-cAMP cryptate solution to all wells and 2.5 μL cAMP-d2 solution (both diluted 1:20 in lysis buffer) to columns 1-22 by Combi drop. A volume of 2.5 μL cAMP-d2 solution was added to wells E23 to P24 and 2.5 μL lysis buffer added to wells A23 to D24 by multichannel pipette. The plates were incubated at room temperature for 1 hr and read on an Envision plate reader using excitation wavelength of 320 nm and emission of 590 nm and 660 nm.
Raw data from Envision is converted to % DeltaF according to the manufacturer's instructions. Dose response curves are analysed via 4-Parameter Logistical Analysis and assay plate Z′ values obtained. Samples are graphed as percentage (%) activation plots compared to GIP (1-42, Bachem H-5645) with assay window defined by negative control as basal cell cAMP levels and positive control are defined by maximum GIP (82.5 nM) signal. GLP1 (7-36 amide, Bachem H-6795) dose response curve was included on all plates.
In general terms: TR-FRET usually uses a lanthanide donor and a delayed reading to cut background.

Structures are written as SMILES.

T2 sequence (P43220 24-463): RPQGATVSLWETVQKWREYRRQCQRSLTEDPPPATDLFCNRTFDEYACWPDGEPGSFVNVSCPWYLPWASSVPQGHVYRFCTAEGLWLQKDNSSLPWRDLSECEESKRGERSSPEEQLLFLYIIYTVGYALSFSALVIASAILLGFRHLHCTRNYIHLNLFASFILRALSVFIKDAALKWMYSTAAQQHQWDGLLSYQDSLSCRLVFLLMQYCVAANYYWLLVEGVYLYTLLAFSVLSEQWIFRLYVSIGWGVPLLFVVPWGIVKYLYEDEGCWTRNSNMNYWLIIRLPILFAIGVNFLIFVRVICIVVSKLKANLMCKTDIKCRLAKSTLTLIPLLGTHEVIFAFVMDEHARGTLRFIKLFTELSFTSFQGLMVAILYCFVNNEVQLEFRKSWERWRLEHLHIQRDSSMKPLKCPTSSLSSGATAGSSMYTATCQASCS
T1 sequence (P43220 24-463 L260F): as the sequence (P43220 24-463) above, with L237F counted along it

One may read the EC50 as the midpoint of the concentration-response curve. As to `C[C@]1(c2ccc(Cl)cc2F)Oc2cccc(N3CCN(Cc4nc5c(Cl)cc(C(=O)O)cc5n4Cc4cocn4)[C@H]4COC[C@H]43)c2O1` (single isomer, unassigned) [Example 19], the figures for the EC50 (at human GLP-1R receptor; in experiment [1]) were 25 nM and 7.4 nM, respectively.

On to `COc1cc(C(=O)O)cc2c1nc(CN1CCN(c3cccc4c3O[C@@](C)(c3ccc(Cl)cc3F)O4)[C@@H]3COC[C@@H]31)n2C[C@@H]1CCO1` (single isomer, unassigned) [Example 3b, 2-(((4aR*,7aS*)-4-((R*)-2-(4-Chloro-2-fluorophenyl)-2-methylbenzo[d][1,3]dioxol-4-yl)hexahydrofuro[3,4-b]pyrazin-1(2H)-yl)methyl)-4-methoxy-1-(((S)-oxetan-2-yl)methyl)-1H-benzo[d]imidazole-6-carboxylic acid], for which the EC50 at human GLP-1R receptor amounted to 61 nM; in experiment [1], 270 nM.

On to `C[C@]1(c2ccc(Cl)cc2F)Oc2cccc(N3CCN(Cc4nc5ccc(C(=O)O)cc5n4C[C@@H]4CCO4)[C@H]4COC[C@H]43)c2O1` (single isomer, unassigned) [Example 6d, 2-(((4aR*,7aS*)-4-((R*)-2-(4-Chloro-2-fluorophenyl)-2-methylbenzo[d][1,3]dioxol-4-yl)hexahydrofuro[3,4-b]pyrazin-1(2H)-yl)methyl)-1-(((S)-oxetan-2-yl)methyl)-1H-benzo[d]imidazole-6-carboxylic acid], for which the EC50 was 520 nM at human GLP-1R receptor and 1100 nM in experiment [1].

As for `C[C@]1(c2ccc(Cl)cn2)Oc2cccc(N3CCN(Cc4nc5ccc(C(=O)O)cc5n4C[C@@H]4CCO4)[C@H]4COC[C@H]43)c2O1` (single isomer, unassigned) [Example 5d, 2-(((4aR*,7aS*)-4-((R*)-2-(5-Chloropyridin-2-yl)-2-methylbenzo[d][1,3]dioxol-4-yl)hexahydrofuro[3,4-b]pyrazin-1(2H)-yl)methyl)-1-(((S)-oxetan-2-yl)methyl)-1H-benzo[d]imidazole-6-carboxylic acid], the results for the EC50 (on human GLP-1R receptor; in experiment [1]) were 330 nM and 2100 nM, respectively.

`C[C@]1(c2ccc(Cl)cc2F)Oc2cccc(N3CCN(Cc4nc5ccc(C(=O)O)cc5n4C[C@@H]4CCO4)[C@H]4COC[C@H]43)c2O1` (single isomer, unassigned) [Example 6c, 2-(((4aR*,7aS*)-4-((R*)-2-(4-Chloro-2-fluorophenyl)-2-methylbenzo[d][1,3]dioxol-4-yl)hexahydrofuro[3,4-b]pyrazin-1(2H)-yl)methyl)-1-(((S)-oxetan-2-yl)methyl)-1H-benzo[d]imidazole-6-carboxylic acid]: the EC50 was 39 nM on human GLP-1R receptor and 150 nM in experiment [1].

Regarding `C[C@]1(c2ccc(Cl)cc2F)Oc2cccc(N3CCN(Cc4nc5ccc(C(=O)O)cc5n4CCn4cccn4)[C@H]4COC[C@H]43)c2O1` (single isomer, unassigned) [Example 7c], the EC50 was 110 nM on human GLP-1R receptor and 3900 nM in experiment [1].

Turning to `C[C@]1(c2ccc(Cl)cc2F)Oc2cccc(N3CCN(Cc4nc5c(F)cc(C(=O)O)cc5n4C[C@@H]4CCO4)[C@H]4COC[C@H]43)c2O1` (single isomer, unassigned) [Example 16b, 2-(((4aR*,7aS*)-4-((R*)-2-(4-Chloro-2-fluorophenyl)-2-methylbenzo[d][1,3]dioxol-4-yl)hexahydrofuro[3,4-b]pyrazin-1(2H)-yl)methyl)-4-fluoro-1-(((S)-oxetan-2-yl)methyl)-1H-benzo[d]imidazole-6-carboxylic acid], the EC50 at human GLP-1R receptor stood at 120 nM; in experiment [1] it was 270 nM.

As for `C[C@]1(c2ccc(Cl)cc2F)Oc2cccc(N3CCN(Cc4nc5c(F)cc(C(=O)O)cc5n4Cc4cocn4)[C@H]4COC[C@H]43)c2O1` (single isomer, unassigned) [Example 20b], the EC50 at human GLP-1R receptor stood at 7.2 nM; in experiment [1], 10 nM.

Turning to `C[C@]1(c2ccc(Cl)cc2F)Oc2cccc(N3CCN(Cc4nc5ccc(C(=O)O)cc5n4CCn4cccn4)[C@H]4COC[C@H]43)c2O1` (single isomer, unassigned) [Example 7a], the EC50 stood at 46 nM on human GLP-1R receptor and 19 nM in experiment [1].

Turning to `C[C@]1(c2ccc(Cl)cn2)Oc2cccc(N3CCN(Cc4nc5c(F)cc(C(=O)O)cc5n4CC4(C#N)CC4)[C@H]4COC[C@H]43)c2O1` (single isomer, unassigned) [Example 22c], the EC50 on human GLP-1R receptor is 140 nM; in experiment [1], 580 nM.

For the molecule `C[C@]1(c2ccc(Cl)cn2)Oc2cccc(N3CCN(Cc4nc5c(F)cc(C(=O)O)cc5n4CCn4cccn4)[C@H]4COC[C@H]43)c2O1` (single isomer, unassigned) [Example 11], the EC50 at human GLP-1R receptor amounted to 96 nM; in experiment [1], 35 nM.

On to `C[C@]1(c2ccc(Cl)cn2)Oc2cccc(N3CCN(Cc4nc5c(F)cc(C(=O)O)cc5n4C[C@@H]4CCO4)[C@H]4COC[C@H]43)c2O1` (single isomer, unassigned) [Example 9c, 2-((4aR*,7aS*)-4-((R*)-2-(5-Chloropyridin-2-yl)-2-methylbenzo[d][1,3]dioxol-4-yl)hexahydrofuro[3,4-b]pyrazin-1(2H)-yl)methyl)-4-fluoro-1-(((S)-oxetan-2-yl)methyl)-1H-benzo[d]imidazole-6-carboxylic acid], for which the values for the EC50 (on human GLP-1R receptor; in experiment [1]) were 570 nM and 1100 nM, respectively.

As to `C[C@]1(c2ccc(Cl)cn2)Oc2cccc(N3CCN(Cc4nc5c(F)cc(C(=O)O)cc5n4C[C@@H]4CCCO4)[C@H]4COC[C@H]43)c2O1` (single isomer, unassigned) [Example 12a, 2-(((4aR*,7aS*)-4-((R*)-2-(5-Chloropyridin-2-yl)-2-methylbenzo[d][1,3]dioxol-4-yl)hexahydrofuro[3,4-b]pyrazin-1(2H)-yl)methyl)-4-fluoro-1-(((S)-tetrahydrofuran-2-yl)methyl)-1H-benzo[d]imidazole-6-carboxylic acid], the EC50 stood at 8 nM on human GLP-1R receptor and 7.6 nM in experiment [1].
